Like-named read-outs stand apart in the source and are kept apart here.
How the values were obtained:
[1] = test system: PDAC KP^flC (LOX H1 clone) cells; test: PDAC allograft, primary tumour, p53 wt, LOX o/e; format: in vivo, mouse; settings: ratio of average tumour volume treated/vehicle; 200 mg/kg po qd; p<0.05
[2] = test system: MMTV-PyMT mammary tumours; test: MMTV-PyMT transgenic mouse breast cancer model, primary tumour; format: in vivo, mice; settings: ratio of average tumour volume treated/vehicle; @67 mpk po qd; p<0.05
Protocol: (§1) All procedures involving animals were approved by the Animal Welfare and Ethical Review Body of the Institute of Cancer Research and Cancer Research UK Manchester Institute in accordance with National Home Office regulations under the Animals (Scientific Procedures) Act 1986 and according to the guidelines of the Committee of the National Cancer Research Institute Tumour size was determined by caliper measurements of tumour length, width and depth and volume was calculated as volume=0.5236×length×width×depth (mm).
(§2) LOX Inhibitor Treatment of a Transgenic Mouse Breast Cancer Model
MMTV-PyMT (Guy et al, 1992) (FVB) female mice were randomized by non-statistical methods to LOX inhibitor treatment groups from day 70 post-birth, when animals had no detectable tumour. […] Tumour size was determined unblinded by caliper measurements of tumour length, width and depth and volume was calculated as 0.5236×length×width×depth (mm). […]
(§3) For therapeutic efficacy assessment, the ratio of average tumour volume between compound treated and vehicle control treated (T/C) is calculated. […] The efficacy of LOX inhibitors described in this invention, as measured by T/C in a pancreatic cancer model, a colorectal cancer model and a breast cancer model is shown in Table 3 and is significant (p<0.05) for all the data presented.

[3] = test system: SW620 human colorectal carcinoma cells (mutant RAS); test: SW620 xenografts, primary tumour; format: in vivo; settings: ratio of average tumour volume treated/vehicle; 200 mg/kg po qd; p<0.05
Protocol: as §1
SW620 xenografts: NCr mice were inoculated subcutaneously in the right flank with 5×10^6 SW620 cells at 100 ul suspension per animal. Groups of 7-8 mice were assigned to treatment following stratified allocation of tumour volumes with a median size of circa 100 mm^3. […] Tumours and weights are measured twice weekly using calipers. […] Frozen samples are kept at −80 degree centigrade until being analysed and the fixed samples stained according to the desired marker.
as §3

[4] = test system: MDA-MB-231 human breast adenocarcinoma; test: MDA-MB-231 xenografts, primary tumour; format: in vivo; settings: ratio of average tumour volume treated/vehicle; 200 mg/kg po qd; p<0.05
Protocol: as §1
MDA-MB-231 xenografts. […] Tumours and weights are measured twice weekly using calipers and the animals can be imaged using non-invasive method by bioluminescence using IVIS 200 imaging machine, weekly using 150 mg/kg luciferin administrate intraperitoneal or subcutaneous. […] Frozen samples kept at −80 degree centigrade until being analyzed and the fixed samples stained according to desired marker.
as §3

LOX = molecular target: T1, LOX (Mus musculus, UniProt P28301); test: LOX activity in cysts assay (roGFP2 LOX biosensor in MDCK cysts); format: cell-based; settings: for IC50: read-out: LOX biosensor IC50 (cyst); for inhibition at 10 µM: read-out: LOX biosensor inhibition (cyst) @ 10 μM
T1 construct: Full length LOX cDNA was then PCR cloned into pEGFP-N1 (Clonetech), or biosensor vector proGFP2-N1; expressed in transfected cells; host or cells: MDCK cells grown as cysts on Matrigel
T1 sequence (P28301 163-411): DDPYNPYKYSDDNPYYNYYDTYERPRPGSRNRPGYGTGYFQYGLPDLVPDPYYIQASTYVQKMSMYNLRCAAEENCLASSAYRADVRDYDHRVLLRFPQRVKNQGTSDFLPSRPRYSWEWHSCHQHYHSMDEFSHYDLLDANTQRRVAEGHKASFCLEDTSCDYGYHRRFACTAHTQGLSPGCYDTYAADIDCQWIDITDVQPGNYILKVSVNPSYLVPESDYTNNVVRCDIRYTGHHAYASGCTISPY
Protocol: LOX Activity in Cysts Assay (Tang et al, 2017).
Cell Culture and Transfection
Cell lines were purchased from American Type Culture Collection (ATCC). […] MDCK cell lines were cultured in Dulbecco's Modified Eagle Medium (DMEM):F12 media supplemented with 10% foetal bovine serum (FBS) and 1% Penicillin Streptomycin solution (Pen Strep). Cells were incubated at 37° C. in a humidified incubator with 5% CO2. Lipofectamine 3000 or lentivirus was used to transfect MDCK cells with GFP constructs and cells were selected with G418 (Life Technologies) at 5 mg/ml. Cell culture reagents were purchased from Life Technologies.
To produce MDCK cysts, cells were cultured on Matrigel (Corning) with 2% Matrigel supplemented in DMEM with 10% FBS. Cysts were allowed to form for 10 days before subsequent studies.
Cloning of LOX Expression Constructs
Mouse LOX cDNA was purchased from OriGene. Full length LOX cDNA was then PCR cloned into pEGFP-N1 (Clonetech), or biosensor vector proGFP2-N1 (Hanson, 2004) using the following primers, […] (forward primer) and […] (reverse primer). For the insertion into pEGFP-N1 or proGFP2-N1, NheI and XhoI restriction sites were added to forward and reverse primers accordingly. Mutant LOX constructs were made using QuickChange II site-directed mutagenesis kit (Agilent Technologies) following manufacture's protocol using LOX-GFP as template. To generate, roGFP2 versions of LOX mutant constructs, LOX mutant cDNA was transferred from pEGFP-N1 to proGFP2-N1 using NheI and XhoI.
Confocal Imaging and Imaging Analysis
Photomicrographs of live MDCK cysts with a Leica TCS SP8 X confocal system were used to image the biosensor. The oxidised biosensor was excited using a 405 nm laser, while the reduced biosensor was excited with a 488 nm laser. Emission of the biosensor was recorded at 500 nm˜530 nm range using sequential scans. Ratio images were generated following a published protocol {Kardash, 2011 #376}. Note, while the published protocol generates YFP/CFP ratio images, we used it to generate Oxidised/Reduced (roGFP2 ratio) ratio images. The roGFP2 ratio at the basal surface of MDCK cysts was used to indicate LOX inhibition. LOX inhibitors were added 30 min prior to imaging.
The inhibition of LOX in cysts treated with LOX inhibitors compared to control (DMSO vehicle treated) cysts is shown in Table 2. For clarity, readout for DMSO treated cysts represents 0% inhibition (no inhibition) and readout for BAPN at 1 mM is used as 100% inhibition (full inhibition).

[5] = test system: PDAC KPC TRP53 R172H (p53 mut) cells; test: PDAC allograft, primary tumour, R172H (p53 mut); format: in vivo, mouse; settings: ratio of average tumour volume treated/vehicle; 200 mg/kg po qd; p<0.05
Protocol: as §1
PDAC allografts: CD1 nu/nu female mice at 6 weeks of age were inoculated subcutaneously in the right flank with 2×10^6 PDAC KPC TRP53 R172H (p53 mut) cells at 100 ul suspension per animal. […] Tumours and weights are measured twice weekly using calipers. […] Frozen samples kept at −80 degree centigrade until being analysed and the fixed samples stained according to the desired marker.
as §3

[6] = test system: MMTV-PyMT lung metastases; test: MMTV-PyMT transgenic mouse breast cancer model, lung metastases; format: in vivo, mice; settings: @67 mpk po qd, p<0.05
Protocol: as §2
MMTV-PyMT (Guy et al, 1992) (FVB) female mice were randomized by non-statistical methods to LOX inhibitor treatment groups from day 70 post-birth, when animals had no detectable tumour. Mice were treated daily by oral gavage with LOX inhibitor in vehicle, or daily vehicle (5% DMSO/2.5% Tween20 in water) by oral gavage. Tumour size was determined unblinded by caliper measurements of tumour length, width and depth and volume was calculated as 0.5236×length×width×depth (mm). In all experiments, mice were humanely killed and mammary tumours and lungs were collected when the primary tumours reached ethical limits or signs of ill health.
For lung metastases quantification, all mouse tissue samples were fixed in 10% formalin (Sigma) and embedded in paraffin. […] Lung metastases number was counted and area was measured using ImageScope. […] The ratio of average metastases surface between compound treated and vehicle control treated (T/C) is calculated. The ratio of average metastases numbers between compound treated and vehicle control treated (T/C) is also calculated. […] The antimetastatic efficacy of LOX inhibitors described in this invention, as measured by T/C in a model of breast cancer metastasizing to lungs is shown in Table 3 and is significant (p<0.05) for all the data presented.

[7] = 10 μM, MDCK cysts, DMSO = 0% inhibition, BAPN at 1 mM = 100% inhibition, inhibitors added 30 min prior to imaging

CCOc1ccc(N2C[C@H]3CN(C(=O)NCCO)C[C@H]3C2)cc1 [Example 1, cis-5-(4-Ethoxyphenyl)-N-(2-hydroxyethyl)hexahydropyrrolo[3,4-c]pyrrole-2(1H)-carboxamide]
T/C, PDAC (mouse pancreatic carcinoma) primary tumour b) p53wt, LOX o/e [1]: b) 0.35 | T/C, MMT-PyMT breast transgenic model - primary tumour [2]: 0.3 | T/C, SW620 human colorectal carcinoma cells (mutant RAS) - primary tumour [3]: 0.55 | T/C, MDA-MB-231 human breast adenocarcinoma - primary tumour [4]: 0.29 | IC50 (LOX; MDCK cysts): < 0.56 µM | T/C, PDAC (mouse pancreatic carcinoma) primary tumour a) R172H (p53mut) [5]: a) 0.54 | T/C, MMT-PyMT breast transgenic model - metastases a) Count ([6]; ratio of average lung metastases numbers treated/vehicle): a) 0.14 | T/C, MMT-PyMT breast transgenic model - metastases b) Area ([6]; ratio of average lung metastases surface treated/vehicle): b) 0.02

CCOc1ccc(N2C[C@H]3CN(CCCC#N)C[C@H]3C2)cc1 [Example 2, cis-4-(5-(4-Ethoxyphenyl)hexahydropyrrolo[3,4-c]pyrrol-2(1H)-yl)butanenitrile]
inhibition at 10 µM (LOX; [7]): 65%

CCOc1ccc(N2C[C@]3(C)CN(C(=O)NCCO)C[C@]3(C)C2)cc1 [Example 3, cis-5-(4-Ethoxyphenyl)-N-(2-hydroxyethyl)-3a,6a-dimethylhexahydropyrrolo[3,4-c]pyrrole-2(1H)-carboxamide]
T/C, PDAC (mouse pancreatic carcinoma) primary tumour b) p53wt, LOX o/e [1]: b) 0.42 | IC50 (LOX; MDCK cysts): 1.62 µM | inhibition at 10 µM (LOX; MDCK): 100% | T/C, PDAC (mouse pancreatic carcinoma) primary tumour a) R172H (p53mut) [5]: a) 0.58

O=C(NC1CCCCC1)N1C[C@@H]2CN(c3ccc(N4CCS(=O)(=O)CC4)cc3)C[C@@H]2C1 [Example 9, cis-N-Cyclohexyl-5-(4-(1,1-dioxidothiomorpholino)phenyl)hexahydropyrrolo[3,4-c]pyrrole-2(1H)-carboxamide]
inhibition at 10 µM (LOX; [7]): 100%

CCOc1ccc(N2C[C@H]3CN(C(=O)Oc4ccc([N+](=O)[O-])cc4)C[C@H]3C2)cc1 [Example 18, 4-Nitrophenyl 5-(4-ethoxyphenyl)hexahydropyrrolo[3,4-c]pyrrole-2(1H)-carboxylate]
inhibition at 10 µM (LOX; [7]): 97%

C[C@@]12CN(C(=O)NCCO)C[C@]1(C)CN(c1ccc(N3CCN(S(C)(=O)=O)CC3)cc1)C2 [Example 28, cis-N-(2-Hydroxyethyl)-3a,6a-dimethyl-5-(4-(4-(methylsulfonyl)piperazin-1-yl)phenyl)hexahydropyrrolo[3,4-c]pyrrole-2(1H)-carboxamide]
inhibition at 10 µM (LOX; [7]): 94%

C[C@@]12CN(C(=O)NCCO)C[C@]1(C)CN(c1ccc(N3CCS(=O)(=O)CC3)cc1)C2 [Example 30, cis-5-(4-(1,1-Dioxidothiomorpholino)phenyl)-N-(2-hydroxyethyl)-3a,6a-dimethylhexahydropyrrolo[3,4-c]pyrrole-2(1H)-carboxamide]
inhibition at 10 µM (LOX; [7]): 59%

N#CCCCN1C[C@@H]2CN(c3ccc(N4CCS(=O)(=O)CC4)cc3)C[C@@H]2C1 [Example 32, cis-4-(5-(4-(1,1-Dioxidothiomorpholino)phenyl)hexahydropyrrolo[3,4-c]pyrrol-2(1H)-yl)butanenitrile]
inhibition at 10 µM (LOX; [7]): 100%

CCOc1ccc(N2C[C@H]3CN(C(=O)N4CCOCC4)C[C@H]3C2)cc1 [Example 37]
inhibition at 10 µM (LOX; [7]): 100%

CCOc1ccc(N2C[C@H]3CN(C(=O)N4CCC(C#N)CC4)C[C@H]3C2)cc1 [Example 42, 1-(cis-5-(4-ethoxyphenyl)octahydropyrrolo[3,4-c]pyrrole-2-carbonyl)piperidine-4-carbonitrile]
inhibition at 10 µM (LOX; [7]): 72%
